Experimental data: US20150181873A1, “HERBICIDE-RESISTANT SUNFLOWER PLANTS, POLYNUCLEOTIDES ENCODING HERBICIDE=RESISTANT ACETO HYDROXY ACID SYNTHASE LARGE SUBUNIT PROTEINS, AND METHODS OF USE” (NIDERA S.A., priority 2013, published 2015)
Values joined by “and” are separate entries in the source; they are usually repeats but may differ in a detail not shown here. Equal entries are not always repeated.

How the values were obtained:
[1] = test system: sunflower hybrid TH11 (A122T); experiment: Greenhouse imazapir dose response, TH11; assay type: in vivo, Helianthus annuus; conditions: 14 DAT
Method: (§1) A greenhouse study was conducted to quantify and contrast the imazapir sensivity of the mutants A122T and A205V in different genetic backgrounds at the whole plant level in sunflower. Seeds of the different sunflower lines that were used in this study were obtained under field conditions.
(§2) Seeds were sown in Petri dishes and, after germination, plantlets were transplanted to pots of 10 cm of diameter in a potting media consisting of equal parts of vermiculite, soil and sand. Plants were grown in a greenhouse under natural light conditions supplemented with 400 W sodium halide lamps to provide a 16 hrs daylength. Day/night temperatures were 25 and 20° C., respectively. At the V2 stage 10 plants of each genotype were randomly assigned to each treatment consisting of […] imazapir doses (0, 40, 80, 160, 240, 320, 400 and 480 g ai/ha), and a zero-time biomass determination. Experiment was arranged as a randomized block design with a full factorial (sunflower line×treatment) arrangement of treatments and 10 replications.
(§3) On the day of herbicide application ten plants of each genotype were cut at the cotyledonal node and dried at 60° C. for 48 hrs zero-time for dried weight determination. […] Height was determined as the distance between the cotyledonal node and the apex of each plant. For root biomass determination, each plant was taken from the pot and the potting media was washed out from the roots. Above ground biomass data from each line were converted to biomass accumulation after application by subtracting the appropriate average zero-time biomass from each sample. Dry biomass data were converted to percentages of the untreated control plants within each line to allow direct comparisons between groups.

[2] = test system: sunflower genotypes carrying the A122T mutation event; experiment: Greenhouse imazapir dose response, A122T genotypes together; assay type: in vivo, Helianthus annuus; conditions: 14 DAT; for biomass accumulation, Dif with control / plant height, Dif with Control / root dry weight, Dif with control: A122T mean; for Phytotoxicity Index, Dif A205V − A122T / biomass accumulation, Dif A122T − A205V / plant height, Dif A122T − A205V / root dry weight, Dif A122T − A205V: difference of group means; for biomass accumulation, % of untreated, Mean / plant height, % of untreated, Mean / root dry weight, % of untreated, Mean: six A122T genotypes; for Phytotoxicity Index, Mean: three A122T genotypes
Method: as §1, §2, §3

## CC(C)C1(C)N=C(c2ncccc2C(=O)O)NC1=O (stereo not drawn) [Imazapyr, imazapyr]
[1]; 0.5x (40 g ai/ha)
  Phytotoxicity Index: 0.4
  biomass accumulation, % of untreated: 96.6%
  plant height, % of untreated: 100.4%
  root dry weight, % of untreated: 100%
[1]; 1x (80 g ai/ha)
  Phytotoxicity Index: 0.4
  biomass accumulation, % of untreated: 93.9%
  plant height, % of untreated: 99.9%
  root dry weight, % of untreated: 99.0%
[1]; 2x (160 g ai/ha)
  Phytotoxicity Index: 0.4
  biomass accumulation, % of untreated: 81.6%
  plant height, % of untreated: 92.0%
  root dry weight, % of untreated: 86.1%
[1]; 3x (240 g ai/ha)
  Phytotoxicity Index: 0.5
  biomass accumulation, % of untreated: 75.8%
  plant height, % of untreated: 90.5%
  root dry weight, % of untreated: 81.5%
[1]; 4x (320 g ai/ha)
  Phytotoxicity Index: 1.0
  biomass accumulation, % of untreated: 75.0%
  plant height, % of untreated: 90.8%
  root dry weight, % of untreated: 72.6%
[1]; 5x (400 g ai/ha)
  Phytotoxicity Index: 2.0
  biomass accumulation, % of untreated: 60.1%
  plant height, % of untreated: 84.4%
  root dry weight, % of untreated: 68.9%
[1]; 6x (480 g ai/ha)
  Phytotoxicity Index: 2.5
  biomass accumulation, % of untreated: 59.6%
  plant height, % of untreated: 84.4%
  root dry weight, % of untreated: 45.3%
[2]; 0.5x (40 g ai/ha)
  biomass accumulation, Dif with control: 1.1%
  plant height, Dif with Control: 0.6%
  root dry weight, Dif with control: 0.1%
  Phytotoxicity Index, Dif A205V − A122T: −0.29
  biomass accumulation, Dif A122T − A205V: 4.3%
  plant height, Dif A122T − A205V: 4.9%
  root dry weight, Dif A122T − A205V: 12.7%
  biomass accumulation, % of untreated, Mean: 98.9%
  plant height, % of untreated, Mean: 99.4%
  root dry weight, % of untreated, Mean: 99.9%
  Phytotoxicity Index, Mean: 0.3
[2]; 1x (80 g ai/ha)
  biomass accumulation, Dif with control: 3.2%
  plant height, Dif with Control: 1.4%
  root dry weight, Dif with control: 2.5%
  Phytotoxicity Index, Dif A205V − A122T: −0.29
  biomass accumulation, Dif A122T − A205V: 14.5%
  plant height, Dif A122T − A205V: 9.4%
  root dry weight, Dif A122T − A205V: 26.7%
  biomass accumulation, % of untreated, Mean: 96.8%
  plant height, % of untreated, Mean: 98.6%
  root dry weight, % of untreated, Mean: 97.5%
  Phytotoxicity Index, Mean: 0.3
[2]; 2x (160 g ai/ha)
  biomass accumulation, Dif with control: 5.1%
  plant height, Dif with Control: 2.7%
  root dry weight, Dif with control: 5.9%
  Phytotoxicity Index, Dif A205V − A122T: 1.87
  biomass accumulation, Dif A122T − A205V: 33.2%
  plant height, Dif A122T − A205V: 28.0%
  root dry weight, Dif A122T − A205V: 43.6%
  biomass accumulation, % of untreated, Mean: 94.9%
  plant height, % of untreated, Mean: 97.3%
  root dry weight, % of untreated, Mean: 94.1%
  Phytotoxicity Index, Mean: 0.3
[2]; 3x (240 g ai/ha)
  biomass accumulation, Dif with control: 7.2%
  plant height, Dif with Control: 4.4%
  root dry weight, Dif with control: 10.6%
  Phytotoxicity Index, Dif A205V − A122T: 4.81
  biomass accumulation, Dif A122T − A205V: 45.3%
  plant height, Dif A122T − A205V: 45.3%
  root dry weight, Dif A122T − A205V: 50.2%
  biomass accumulation, % of untreated, Mean: 92.8%
  plant height, % of untreated, Mean: 95.6%
  root dry weight, % of untreated, Mean: 89.4%
  Phytotoxicity Index, Mean: 0.3
[2]; 4x (320 g ai/ha)
  biomass accumulation, Dif with control: 12.2%
  plant height, Dif with Control: 6.3%
  root dry weight, Dif with control: 18.6%
  Phytotoxicity Index, Dif A205V − A122T: 6.92
  biomass accumulation, Dif A122T − A205V: 52.4%
  plant height, Dif A122T − A205V: 59.9%
  root dry weight, Dif A122T − A205V: 50.3%
  biomass accumulation, % of untreated, Mean: 87.8%
  plant height, % of untreated, Mean: 93.7%
  root dry weight, % of untreated, Mean: 81.4%
  Phytotoxicity Index, Mean: 0.5
[2]; 5x (400 g ai/ha)
  biomass accumulation, Dif with control: 20.7%
  plant height, Dif with Control: 10.2%
  root dry weight, Dif with control: 21.3%
  Phytotoxicity Index, Dif A205V − A122T: 7.38
  biomass accumulation, Dif A122T − A205V: 46.9%
  plant height, Dif A122T − A205V: 57.8%
  root dry weight, Dif A122T − A205V: 47.9%
  biomass accumulation, % of untreated, Mean: 79.3%
  plant height, % of untreated, Mean: 89.8%
  root dry weight, % of untreated, Mean: 78.7%
  Phytotoxicity Index, Mean: 0.8
[2]; 6x (480 g ai/ha)
  plant height, Dif with Control: 15.8%
  root dry weight, Dif with control: 38.3%
  Phytotoxicity Index, Dif A205V − A122T: 7.03
  biomass accumulation, Dif A122T − A205V: 44.6%
  plant height, Dif A122T − A205V: 54.0%
  root dry weight, Dif A122T − A205V: 37.3%
  biomass accumulation, % of untreated, Mean: 74.6%
  plant height, % of untreated, Mean: 84.2%
  root dry weight, % of untreated, Mean: 61.7%
  Phytotoxicity Index, Mean: 1.2
[2]; 6x (480 g ai/ha), listed as imazapir
  biomass accumulation, Dif with control: 25% and 25.4%
